From patent US7419944B2, “Aqueous disinfecting systems” (Novartis AG, priority 2000, dated 2008)

How the values were obtained:
Candida albicans = assay: Semi-quantitative screen of common buffers plus approx. 1.2 ppm PHMB for antimicrobial activity; format: cell-based; settings: for log reduction: buffer of equal molarity plus approx. 1.2 ppm PHMB, Candida albicans approx. 4x10^5 cfu/ml, estimated visually, in duplicate; for log reduction / estimated relative antimicrobial activity: 4.0 hour exposure; for estimated relative antimicrobial activity: buffer plus approx. 1.2 ppm PHMB, Candida albicans
Experimental: In this example common buffers plus approximately 1.2 ppm PHMB are evaluated for antimicrobial activity against Candida albicans. The pH and molarity of each solution was adjusted to approximately the same values. In that log reductions are estimated by visual observation of solution color and/or pellet formation in the bottom of the test tube, the test is semi-quantitative. All tests were performed in duplicate. All of the biological buffers shown in are described in Biochemicals and Reagents, Sigma-Aldrich CO., 2000-2001 edition Sigma-Aldrich, or online at URL sigma-aldrich.com.
Tubes of sterile solutions of buffer of equal molarity plus approxiamately 1.2 ppm PHMB are challenged with a suspension of Candida albicans at approx. 4×10^5 cfu/ml. Following 4.0 hour exposure, aliquots of each test solution are serially diluted to 10^−5 in DEB. Following approx. 40 hours incubation at ˜32° C., the tubes are observed for discoloration of the DEB and for a pellet in the 10^−5 tube. The entire study is then performed in duplicate.

[1] = cited from earlier work

Compound | log reduction (Candida albicans) | other results
NC(=O)CNCCS(=O)(=O)O [ACES] | <1 log | –
NC(=O)CN(CC(=O)O)CC(=O)O [ADA] | NONE | –
O=S(=O)(O)CCN(CCO)CCO [BES] | NONE | –
OCC(CO)(CO)NCCCNC(CO)(CO)CO [BIS-TRIS propane, 1,3-bis(tris[hydroxymethyl]methylamino)propane] | 2-3 log | estimated relative antimicrobial activity (Candida albicans): superior activity; antimicrobial activity compared with solutions employing any of the other buffering agents (Candida albicans; screening study of 15 biological buffers with polyhexamethylene biguanide or alexidine): significantly higher; pH range useful as a buffering agent ([1]; aqueous solutions): 6.3-9.3; pKa1 ([1]; dissociation constant): 6.8; pKa2 ([1]; dissociation constant): 9.5
OCCN(CCO)C(CO)(CO)CO [BIS-TRIS] | 1 log | estimated relative antimicrobial activity (Candida albicans): better activity than phosphate
O=S(=O)(O)CC(O)CN(CCO)CCO (stereo not shown) [DIPSO] | <1 log | –
O=S(=O)(O)CCN1CCN(CCO)CC1 [HEPES] | <1 log | –
O=S(=O)(O)CCCCN1CCOCC1 [MOBS] | <1 log | –
O=S(=O)(O)CC(O)CN1CCOCC1 (stereo not shown) [MOPSO] | NONE | –
O=S(=O)(O)CCCN1CCOCC1 [MOPS] | NONE | –
O=S(=O)(O)CCN1CCN(CCS(=O)(=O)O)CC1 [PIPES] | NONE | –
O=S(=O)(O)CC(O)CNC(CO)(CO)CO (stereo not shown) [TAPSO] | 1 log | estimated relative antimicrobial activity (Candida albicans): better activity than phosphate
O=S(=O)(O)CCNC(CO)(CO)CO [TES] | <1 log | –
Borate | 2-3 log | estimated relative antimicrobial activity (Candida albicans): superior activity
